Columns and labels:
[1] = system: Tyrosine-protein kinase ABL1 (Homo sapiens), P00519 [M351T]; conditions: Compound concentration 1000.0 nM
[2] = biological target: Atypical kinase COQ8A, mitochondrial (Homo sapiens) (UniProt Q8NI60); conditions: Compound concentration 1000.0 nM
[3] = biological target: 5'-AMP-activated protein kinase catalytic subunit alpha-1 (Homo sapiens) (UniProt Q13131); conditions: Compound concentration 1000.0 nM
[4] = biological target: Serine/threonine-protein kinase DCLK3 (Homo sapiens) (UniProt Q9C098); conditions: Compound concentration 1000.0 nM
[5] = biological target: Serine/threonine-protein kinase 17B (Homo sapiens) (UniProt O94768); conditions: Compound concentration 1000.0 nM
[6] = system: Epidermal growth factor receptor (Homo sapiens), P00533 [T790M]; conditions: Compound concentration 1000.0 nM
[7] = biological target: Ephrin type-A receptor 3 (Homo sapiens) (UniProt P29320); conditions: Compound concentration 1000.0 nM
[8] = biological target: Mitogen-activated protein kinase 6 (Homo sapiens) (UniProt Q16659); conditions: Compound concentration 1000.0 nM
[9] = biological target: Mitogen-activated protein kinase 7 (Homo sapiens) (UniProt Q13164); conditions: Compound concentration 1000.0 nM
[10] = biological target: Tyrosine-protein kinase Fes/Fps (Homo sapiens) (UniProt P07332); conditions: Compound concentration 1000.0 nM
[11] = system: Fibroblast growth factor receptor 3 (Homo sapiens), P22607 [G697C]; conditions: Compound concentration 1000.0 nM
[12] = biological target: Vascular endothelial growth factor receptor 1 (Homo sapiens) (UniProt P17948); conditions: Compound concentration 1000.0 nM
[13] = system: Receptor-type tyrosine-protein kinase FLT3 (Homo sapiens), P36888 [UNDEFINED MUTATION]; conditions: Compound concentration 1000.0 nM
[14] = system: Receptor-type tyrosine-protein kinase FLT3 (Homo sapiens), P36888 [N841I]; conditions: Compound concentration 1000.0 nM
[15] = biological target: G protein-coupled receptor kinase 3 (Homo sapiens) (UniProt P35626); conditions: Compound concentration 1000.0 nM
[16] = biological target: G protein-coupled receptor kinase 4 (Homo sapiens) (UniProt P32298); conditions: Compound concentration 1000.0 nM
[17] = biological target: Tyrosine-protein kinase JAK1 (Homo sapiens) (UniProt P23458); conditions: Compound concentration 1000.0 nM
[18] = biological target: MAP kinase-activated protein kinase 2 (Homo sapiens) (UniProt P49137); conditions: Compound concentration 1000.0 nM
[19] = biological target: Serine/threonine-protein kinase MARK2 (Homo sapiens) (UniProt Q7KZI7); conditions: Compound concentration 1000.0 nM
[20] = biological target: Myosin light chain kinase (Homo sapiens) (UniProt Q32MK0); conditions: Compound concentration 1000.0 nM
[21] = biological target: Macrophage-stimulating protein receptor (Homo sapiens) (UniProt Q04912); conditions: Compound concentration 1000.0 nM
[22] = system: Phosphatidylinositol 4,5-bisphosphate 3-kinase catalytic subunit alpha isoform (Homo sapiens), P42336 [E545A]; conditions: Compound concentration 1000.0 nM
[23] = system: Phosphatidylinositol 4,5-bisphosphate 3-kinase catalytic subunit alpha isoform (Homo sapiens), P42336 [I800L]; conditions: Compound concentration 1000.0 nM
[24] = biological target: Phosphatidylinositol 4,5-bisphosphate 3-kinase catalytic subunit beta isoform (Homo sapiens) (UniProt P42338); conditions: Compound concentration 1000.0 nM
[25] = biological target: Phosphatidylinositol 4,5-bisphosphate 3-kinase catalytic subunit gamma isoform (Homo sapiens) (UniProt P48736); conditions: Compound concentration 1000.0 nM
[26] = biological target: cAMP-dependent protein kinase catalytic subunit alpha (Homo sapiens) (UniProt P17612); conditions: Compound concentration 1000.0 nM
[27] = biological target: Serine/threonine-protein kinase PLK1 (Homo sapiens) (UniProt P53350); conditions: Compound concentration 1000.0 nM
[28] = biological target: Serine/threonine-protein kinase PLK3 (Homo sapiens) (UniProt Q9H4B4); conditions: Compound concentration 1000.0 nM
[29] = biological target: Serine/threonine-protein kinase D2 (Homo sapiens) (UniProt Q9BZL6); conditions: Compound concentration 1000.0 nM
[30] = biological target: Receptor-interacting serine/threonine-protein kinase 2 (Homo sapiens) (UniProt O43353); conditions: Compound concentration 1000.0 nM
[31] = biological target: Ribosomal protein S6 kinase alpha-5 (Homo sapiens) (UniProt O75582); conditions: Compound concentration 1000.0 nM
[32] = biological target: TGF-beta receptor type-1 (Homo sapiens) (UniProt P36897); conditions: Compound concentration 1000.0 nM
[33] = biological target: Activated CDC42 kinase 1 (Homo sapiens) (UniProt Q07912); conditions: Compound concentration 1000.0 nM
[34] = biological target: Vascular endothelial growth factor receptor 2 (Homo sapiens) (UniProt P35968); conditions: Compound concentration 1000.0 nM
[35] = biological target: Wee1-like protein kinase 2 (Homo sapiens) (UniProt P0C1S8); conditions: Compound concentration 1000.0 nM
[36] = biological target: Mu-type opioid receptor (Homo sapiens) (UniProt P35372); conditions: Compound concentration 10.0 uM
[37] = biological target: T1, Muscarinic acetylcholine receptor M5 (Homo sapiens) (UniProt P08912); conditions: Compound concentration 10.0 uM
T1 sequence (whole entry): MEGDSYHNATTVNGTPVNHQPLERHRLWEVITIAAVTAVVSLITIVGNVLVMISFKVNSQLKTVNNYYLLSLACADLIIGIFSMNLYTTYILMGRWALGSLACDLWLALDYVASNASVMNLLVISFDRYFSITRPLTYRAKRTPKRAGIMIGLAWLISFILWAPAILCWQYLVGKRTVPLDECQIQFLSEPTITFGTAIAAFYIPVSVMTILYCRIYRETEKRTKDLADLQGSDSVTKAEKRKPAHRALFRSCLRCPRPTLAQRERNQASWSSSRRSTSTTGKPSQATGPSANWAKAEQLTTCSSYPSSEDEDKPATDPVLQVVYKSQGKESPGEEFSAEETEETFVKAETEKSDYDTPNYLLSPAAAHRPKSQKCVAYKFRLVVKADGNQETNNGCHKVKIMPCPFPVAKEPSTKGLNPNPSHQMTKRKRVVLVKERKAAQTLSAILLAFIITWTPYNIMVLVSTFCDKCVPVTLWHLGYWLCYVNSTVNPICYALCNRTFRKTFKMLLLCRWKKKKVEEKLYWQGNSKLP

Chain of Serine/threonine-protein kinase PLK1 (Homo sapiens) (P53350 whole entry): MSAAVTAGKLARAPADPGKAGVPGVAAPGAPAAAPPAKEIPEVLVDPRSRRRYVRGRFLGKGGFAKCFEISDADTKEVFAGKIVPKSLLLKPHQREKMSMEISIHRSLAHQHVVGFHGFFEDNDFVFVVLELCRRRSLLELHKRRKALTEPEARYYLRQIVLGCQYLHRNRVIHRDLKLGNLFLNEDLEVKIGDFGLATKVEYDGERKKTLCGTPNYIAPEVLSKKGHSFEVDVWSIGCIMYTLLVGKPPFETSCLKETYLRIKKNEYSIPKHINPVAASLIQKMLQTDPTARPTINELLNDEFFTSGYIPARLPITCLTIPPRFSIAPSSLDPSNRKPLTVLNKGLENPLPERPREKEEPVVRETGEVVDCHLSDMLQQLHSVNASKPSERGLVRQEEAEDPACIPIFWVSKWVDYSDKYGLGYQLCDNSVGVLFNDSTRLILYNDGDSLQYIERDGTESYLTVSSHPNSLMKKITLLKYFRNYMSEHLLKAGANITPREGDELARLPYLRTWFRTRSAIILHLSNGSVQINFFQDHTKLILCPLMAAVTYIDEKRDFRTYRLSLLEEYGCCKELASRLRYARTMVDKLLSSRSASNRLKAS
Chain of G protein-coupled receptor kinase 4 (Homo sapiens) (P32298 whole entry, looked up): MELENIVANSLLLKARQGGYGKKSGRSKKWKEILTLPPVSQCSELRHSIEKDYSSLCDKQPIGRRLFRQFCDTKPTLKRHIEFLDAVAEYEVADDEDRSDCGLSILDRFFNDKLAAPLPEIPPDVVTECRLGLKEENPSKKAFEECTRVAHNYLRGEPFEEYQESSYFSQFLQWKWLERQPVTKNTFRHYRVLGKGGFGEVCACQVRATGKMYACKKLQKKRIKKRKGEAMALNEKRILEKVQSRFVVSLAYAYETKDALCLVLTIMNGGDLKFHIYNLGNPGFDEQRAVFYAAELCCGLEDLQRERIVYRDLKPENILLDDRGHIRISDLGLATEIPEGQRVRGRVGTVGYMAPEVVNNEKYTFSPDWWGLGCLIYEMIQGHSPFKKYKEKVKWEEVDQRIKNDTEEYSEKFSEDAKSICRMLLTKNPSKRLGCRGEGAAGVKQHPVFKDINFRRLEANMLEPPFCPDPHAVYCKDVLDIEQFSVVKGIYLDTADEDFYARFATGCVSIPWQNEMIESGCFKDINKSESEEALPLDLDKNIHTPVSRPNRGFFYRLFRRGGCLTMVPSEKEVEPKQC
Chain of Ribosomal protein S6 kinase alpha-5 (Homo sapiens) (O75582 whole entry, looked up): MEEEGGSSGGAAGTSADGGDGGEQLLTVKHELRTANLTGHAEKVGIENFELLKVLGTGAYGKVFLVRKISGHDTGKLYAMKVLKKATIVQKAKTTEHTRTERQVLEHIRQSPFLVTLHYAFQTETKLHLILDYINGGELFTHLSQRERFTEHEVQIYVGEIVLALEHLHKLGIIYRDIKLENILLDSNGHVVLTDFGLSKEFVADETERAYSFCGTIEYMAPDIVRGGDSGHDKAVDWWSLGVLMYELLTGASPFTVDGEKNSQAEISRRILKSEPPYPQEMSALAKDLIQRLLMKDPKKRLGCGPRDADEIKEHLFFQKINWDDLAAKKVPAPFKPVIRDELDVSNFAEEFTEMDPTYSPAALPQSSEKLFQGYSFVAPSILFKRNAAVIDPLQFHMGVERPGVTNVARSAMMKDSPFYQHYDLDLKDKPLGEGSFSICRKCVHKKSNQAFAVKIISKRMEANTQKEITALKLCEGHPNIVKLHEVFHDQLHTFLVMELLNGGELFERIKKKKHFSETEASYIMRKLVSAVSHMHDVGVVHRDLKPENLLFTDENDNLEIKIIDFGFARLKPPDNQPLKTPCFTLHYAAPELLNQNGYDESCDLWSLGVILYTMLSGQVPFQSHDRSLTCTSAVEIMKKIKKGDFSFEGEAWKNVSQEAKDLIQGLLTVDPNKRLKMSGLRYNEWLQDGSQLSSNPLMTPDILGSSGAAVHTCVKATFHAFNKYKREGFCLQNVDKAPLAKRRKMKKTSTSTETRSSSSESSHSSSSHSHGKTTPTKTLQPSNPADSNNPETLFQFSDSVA
Chain of Mitogen-activated protein kinase 6 (Homo sapiens) (Q16659 whole entry): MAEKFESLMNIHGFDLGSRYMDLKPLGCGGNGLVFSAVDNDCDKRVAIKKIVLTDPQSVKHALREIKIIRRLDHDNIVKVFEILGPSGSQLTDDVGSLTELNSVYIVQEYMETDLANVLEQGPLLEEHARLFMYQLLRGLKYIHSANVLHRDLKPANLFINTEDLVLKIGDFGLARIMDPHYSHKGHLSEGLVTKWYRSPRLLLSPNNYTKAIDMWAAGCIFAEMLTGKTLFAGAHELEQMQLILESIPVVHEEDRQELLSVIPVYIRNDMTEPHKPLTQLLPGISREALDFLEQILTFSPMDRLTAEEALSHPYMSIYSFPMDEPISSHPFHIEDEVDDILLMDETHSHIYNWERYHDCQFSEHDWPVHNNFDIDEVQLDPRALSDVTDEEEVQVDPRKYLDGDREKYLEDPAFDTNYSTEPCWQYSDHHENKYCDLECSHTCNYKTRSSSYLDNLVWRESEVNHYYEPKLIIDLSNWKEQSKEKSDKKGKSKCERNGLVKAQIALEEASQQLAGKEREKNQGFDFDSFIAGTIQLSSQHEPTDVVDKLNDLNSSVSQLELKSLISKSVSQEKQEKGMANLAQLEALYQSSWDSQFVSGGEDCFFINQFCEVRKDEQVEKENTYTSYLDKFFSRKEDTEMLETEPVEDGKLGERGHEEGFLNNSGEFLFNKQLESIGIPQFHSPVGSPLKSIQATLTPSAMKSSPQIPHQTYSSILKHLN
Chain of Myosin light chain kinase (Homo sapiens) (Q32MK0 whole entry): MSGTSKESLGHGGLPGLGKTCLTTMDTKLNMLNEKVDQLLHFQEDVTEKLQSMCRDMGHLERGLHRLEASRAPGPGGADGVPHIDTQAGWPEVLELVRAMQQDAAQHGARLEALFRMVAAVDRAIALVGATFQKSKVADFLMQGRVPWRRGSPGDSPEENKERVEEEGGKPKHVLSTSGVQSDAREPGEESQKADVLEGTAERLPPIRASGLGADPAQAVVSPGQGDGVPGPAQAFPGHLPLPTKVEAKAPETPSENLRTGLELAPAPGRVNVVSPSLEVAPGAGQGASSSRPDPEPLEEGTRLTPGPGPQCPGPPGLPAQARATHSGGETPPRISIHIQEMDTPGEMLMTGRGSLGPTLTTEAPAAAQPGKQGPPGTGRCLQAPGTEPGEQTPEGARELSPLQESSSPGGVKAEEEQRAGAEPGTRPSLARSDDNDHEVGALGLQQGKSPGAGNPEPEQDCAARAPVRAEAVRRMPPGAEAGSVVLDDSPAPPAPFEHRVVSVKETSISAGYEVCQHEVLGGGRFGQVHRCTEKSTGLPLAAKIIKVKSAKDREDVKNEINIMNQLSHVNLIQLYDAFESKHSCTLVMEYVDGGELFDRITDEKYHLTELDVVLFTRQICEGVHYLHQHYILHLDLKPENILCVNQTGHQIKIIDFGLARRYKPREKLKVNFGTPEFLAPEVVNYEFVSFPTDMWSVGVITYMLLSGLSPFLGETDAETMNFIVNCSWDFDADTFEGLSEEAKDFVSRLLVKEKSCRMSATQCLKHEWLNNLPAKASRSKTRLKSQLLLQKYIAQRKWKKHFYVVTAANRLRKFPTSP
Chain of Serine/threonine-protein kinase D2 (Homo sapiens) (Q9BZL6 whole entry): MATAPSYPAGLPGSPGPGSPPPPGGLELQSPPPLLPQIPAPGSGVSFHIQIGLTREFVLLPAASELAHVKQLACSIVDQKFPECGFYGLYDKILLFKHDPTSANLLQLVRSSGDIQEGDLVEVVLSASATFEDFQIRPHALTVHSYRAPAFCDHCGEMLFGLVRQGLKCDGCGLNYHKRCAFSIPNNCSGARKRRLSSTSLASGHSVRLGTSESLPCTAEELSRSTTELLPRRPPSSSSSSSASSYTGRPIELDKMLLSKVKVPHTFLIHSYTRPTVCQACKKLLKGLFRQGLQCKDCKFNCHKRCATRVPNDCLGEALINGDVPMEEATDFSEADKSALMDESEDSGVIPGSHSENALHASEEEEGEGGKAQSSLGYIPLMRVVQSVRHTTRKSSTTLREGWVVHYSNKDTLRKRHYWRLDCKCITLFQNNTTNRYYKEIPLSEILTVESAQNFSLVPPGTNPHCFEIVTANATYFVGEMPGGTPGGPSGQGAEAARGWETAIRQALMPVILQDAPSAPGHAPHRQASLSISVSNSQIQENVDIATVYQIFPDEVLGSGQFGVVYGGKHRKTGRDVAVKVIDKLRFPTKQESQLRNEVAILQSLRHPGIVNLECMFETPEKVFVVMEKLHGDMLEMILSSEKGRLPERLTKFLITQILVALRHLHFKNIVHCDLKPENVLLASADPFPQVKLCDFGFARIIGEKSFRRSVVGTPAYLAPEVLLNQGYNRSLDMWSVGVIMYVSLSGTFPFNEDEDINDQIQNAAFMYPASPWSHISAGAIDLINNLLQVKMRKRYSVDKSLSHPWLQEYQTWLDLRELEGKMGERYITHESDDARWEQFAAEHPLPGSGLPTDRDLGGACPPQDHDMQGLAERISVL
Chain of Atypical kinase COQ8A, mitochondrial (Homo sapiens) (Q8NI60 163-647 limits assumed): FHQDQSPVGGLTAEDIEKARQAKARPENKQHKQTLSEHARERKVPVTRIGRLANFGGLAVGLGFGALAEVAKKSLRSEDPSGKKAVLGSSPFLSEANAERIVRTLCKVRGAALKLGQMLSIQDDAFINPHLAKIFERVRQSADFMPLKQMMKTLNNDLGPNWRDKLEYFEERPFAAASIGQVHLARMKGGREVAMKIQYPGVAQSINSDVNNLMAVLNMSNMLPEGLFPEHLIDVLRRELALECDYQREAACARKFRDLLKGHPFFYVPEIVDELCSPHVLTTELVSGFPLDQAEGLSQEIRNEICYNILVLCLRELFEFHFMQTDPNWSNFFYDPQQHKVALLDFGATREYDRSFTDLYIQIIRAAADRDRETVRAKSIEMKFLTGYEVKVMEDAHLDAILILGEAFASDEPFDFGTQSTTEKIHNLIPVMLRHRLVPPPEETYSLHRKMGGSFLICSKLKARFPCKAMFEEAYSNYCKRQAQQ

CN(C)CC#Cc1ccc(OCCCc2sc(N3CCc4cccc(C(=O)Nc5nc6ccccc6s5)c4C3)nc2C(=O)O)c(F)c1 [A-1155463]
inactive: residual activity [1] 91% | residual activity [2] 100% | residual activity [3] 100% | residual activity [4] 100% | residual activity [5] 72% | residual activity [6] 100% | residual activity [7] 91% | residual activity [8] 94% | residual activity [9] 99% | residual activity [10] 100% | residual activity [11] 88% | residual activity [12] 92% | residual activity [13] 100% | residual activity [14] 81% | residual activity [15] 92% | residual activity [16] 100% | residual activity [17] 97% | residual activity [18] 88% | residual activity [19] 100% | residual activity [20] 78% | residual activity [21] 99% | residual activity [22] 100% | residual activity [23] 75% | residual activity [24] 100% | residual activity [25] 100% | residual activity [26] 89% | residual activity [27] 100% | residual activity [28] 92% | residual activity [29] 84% | residual activity [30] 100% | residual activity [31] 90% | residual activity [32] 100% | residual activity [33] 100% | residual activity [34] 100% | residual activity [35] 100% | inhibition [36] 15.4% | inhibition [37] 12.6%

From ChEMBL document CHEMBL4507311, “Data for DCP probe A-1155463” (2021)
